1 compound from BindingDB's records for doi:10.1021/acs.jmedchem.8b00890 (Beijing Institute of Pharmacology and Toxicology, 2018) can be followed below.

SMILES strings stand for the structures. Where a SMILES comes first, the peptide text is derived from it. [ ]: non-standard residue; d: D form. The star is where a group is joined. Palmitoyl = CCCCCCCCCCCCCCCC(=O)*; βAla = NCCC(=O)O

Assay [1] is described as follows: Inhibition of Ebola virus Sudan envelope glycoprotein-mediated cell entry in human HuH7 cells treated with 30 mins pre-treated pseudovirus/compopund mixture and measured after 72 hrs by luciferase reporter assay. On the technique in general: In a reporter assay the amount or activity of a reporter protein is the signal.
Assay [2] can be described thus: Inhibition of HIV1 envelope glycoprotein-mediated cell-cell fusion between HL2/3 cells stably expressing HIV Gag, Env, Tat, Rev and Nef proteins and human TZM-bl cells stably expressing high CD4 and CCR5 incubated for 6 to 8 hrs by luciferase reporter assay.

By EC50 is commonly meant the concentration needed to bring the measured effect to its halfway point. As for `CCCCCCCCCCCCCCCC(=O)NCCCC[C@H](NC(=O)CCNC(=O)[C@H](CCCCN)NC(=O)[C@H](CCCCN)NC(=O)[C@H](CCC(N)=O)NC(=O)[C@@H](NC(=O)[C@H](CCC(=O)O)NC(=O)[C@H](CCC(=O)O)NC(=O)[C@@H](NC(=O)[C@H](CCCCN)NC(=O)[C@H](CCCCN)NC(=O)[C@H](CCC(N)=O)NC(=O)[C@@H](NC(=O)[C@H](CCC(=O)O)NC(=O)[C@H](CCC(=O)O)NC(=O)[C@@H](NC(=O)[C@H](CCCCN)NC(=O)[C@H](CCCCN)NC(=O)[C@H](CCC(N)=O)NC(=O)[C@@H](NC(=O)[C@H](CCC(=O)O)NC(=O)[C@H](CCC(=O)O)NC(=O)[C@@H](NC(=O)[C@H](CCCCN)NC(=O)[C@H](CCCCN)NC(=O)[C@H](CCC(N)=O)NC(=O)[C@@H](NC(=O)[C@H](CCC(=O)O)NC(=O)[C@H](CCC(=O)O)NC(=O)[C@@H](NC(=O)[C@H](CCCCN)NC(=O)[C@H](CCCCN)NC(=O)[C@H](CCC(N)=O)NC(=O)[C@@H](NC(=O)[C@H](CCC(=O)O)NC(=O)[C@H](CCC(=O)O)NC(=O)[C@@H](NC(C)=O)[C@@H](C)CC)[C@@H](C)CC)[C@@H](C)CC)[C@@H](C)CC)[C@@H](C)CC)[C@@H](C)CC)[C@@H](C)CC)[C@@H](C)CC)[C@@H](C)CC)[C@@H](C)CC)C(N)=O` (Ac-IEEIQKKIEEIQKKIEEIQKKIEEIQKKIEEIQKK[βAla]K(Palmitoyl)-NH2), the results for the EC50 in assay [1] and in assay [2] were 1.02 µM and 3.63 µM, respectively.
